Where “and” joins values, the source holds several entries; their conditions need not be identical. Equal values may be shown once.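 Compound exposure: 48 hours, 5 concentrations, 96-well plates. GI50: concentration for 50% inhibition of growth. TGI is the concentration that stops growth completely.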
Tests used:
Experiment in all cases: NCI anticancer screen, dose series, 48 h
ACHN renal = test system: ACHN renal
COLO 205 colon = test system: COLO 205 colon
EKVX NSCLC = test system: EKVX NSCLC
HT29 colon = test system: HT29 colon
KM12 colon = test system: KM12 colon
MDA-MB-435 = test system: MDA-MB-435
SF-268 CNS = test system: SF-268 CNS
T-47D breast = test system: T-47D breast
UACC-62 melanoma = test system: UACC-62 melanoma
SNB-19 CNS = test system: SNB-19 CNS

SMILES | TGI (ACHN renal) [µM] | TGI (COLO 205 colon) | TGI (EKVX NSCLC) | TGI (HT29 colon) | TGI (KM12 colon) | TGI (MDA-MB-435) [µM] | TGI (SF-268 CNS) [µM] | TGI (T-47D breast) [µM] | TGI (UACC-62 melanoma) [µM] | TGI (SNB-19 CNS) | GI50 (COLO 205 colon) [µM] | GI50 (EKVX NSCLC) [µM] | GI50 (KM12 colon) [µM] | GI50 (MDA-MB-435) [µM] | GI50 (SNB-19 CNS) [µM] | GI50 (T-47D breast) [µM]
CC(NNC(=O)c1ccncc1)c1cccc(C(F)(F)F)c1 (stereo unspecified) | > 100 | > 100 µM | > 100 µM | > 100 µM | > 100 µM | > 100 | > 100 | > 100 | > 100 |  |  |  |  |  |  | 
CCOC(=O)c1nc2cc(Cl)ccc2[nH]c1=O | > 100 | > 100 µM | > 100 µM | > 100 µM | > 100 µM | > 100 | > 100 | > 100 | > 100 | > 100 µM |  |  |  |  |  | 
CCNC(=S)NNC(=O)c1ccccc1Nc1ccccc1C(=O)NNC(=S)NCC | > 100 | > 100 µM | > 100 µM | > 100 µM | > 100 µM | > 100 |  | > 100 | > 100 | > 100 µM |  |  |  |  |  | 
O=c1c2c3c(sc2nc2n1NC=NN2)CCCC3 | 30.3 | 55.3 µM | 35.9 µM | 38.9 µM | 34.1 µM | 26.4 | 34.8 | > 65.8 | 35.8 | > 71.5 µM |  |  |  |  |  | 
CNC(=O)CNC(=O)N(C[C@@H]1CCCN1C(=O)[C@H](CC(C)C)NC(=O)OC(C)(C)C)C(C)C | > 100 | > 100 µM | > 100 µM | > 100 µM | > 100 µM | > 100 | > 100 | > 100 | > 100 | > 100 µM |  |  |  |  |  | 
CC1OC(O[C@@H]2C=C3CC[C@@H]4[C@H](CC[C@]5(C)[C@@H](c6ccc(=O)oc6)CC[C@]45O)[C@@]3(C)CC2)C(O)C(OC2OC(CO)C(O)C(O)C2O)C1O (stereo partly specified) | 0.00301 | 0.163 µM and 0.029 µM | 0.00534 µM and 0.0254 µM | 0.0878 µM and 0.349 µM | 0.182 µM and 0.039 µM | 0.02 | 0.00983 |  | 0.0263 | 0.113 µM and 0.0674 µM | 0.000949 | 0.000339 | 0.000437 | 0.000454 | 0.00038 | 0.00216
NC1=Nc2ccccc2Sc2cccc(F)c21 | > 100 | > 100 µM | > 100 µM | > 100 µM | > 100 µM | > 100 | > 100 | > 100 | > 100 | > 100 µM |  |  |  |  |  | 
Cc1ccnc(Nc2[nH]c(C(=O)c3ccc(Cl)cc3)c(N)c2C(=S)Nc2ccccc2)c1 | 55.8 | 29.9 µM | 44.6 µM | 28.6 µM | 32.4 µM | 35.3 | 59.8 | > 100 | 25.3 | 64.1 µM |  |  |  |  |  | 
COC(=O)c1c2c(cc3c1CC1(Cc4ccccc4C1)C3)CCC2 | 86.8 | 42.1 µM | 98.7 µM | 34 µM | 70.2 µM | 39.1 | > 100 | 43.2 | 58.8 |  |  |  |  |  |  | 
C=C1CCOC2(C(O)C(C)(O)CO)NC(=O)C1(O)NC2=O (stereo unspecified) | > 100 | > 100 µM | > 100 µM | > 100 µM | > 100 µM | > 100 | > 100 | > 100 | > 100 | > 100 µM |  |  |  |  |  | 
Cc1nc2ccc(NC3OCC(O)C(O)C3O)cc2c(=O)n1-c1ccccc1 (stereo unspecified) | > 100 | > 100 µM | > 100 µM | > 100 µM | > 100 µM | > 100 | > 100 | > 100 | > 100 | > 100 µM |  |  |  |  |  | 
CN(C)CC1CCC/C(=C\c2ccc(OC(=O)/C=C/c3ccc(Cl)cc3)cc2)C1=O (stereo unspecified) | 5.73 | 2.79 µM | 15.2 µM | 7.12 µM | 4.38 µM | 21.1 | 12.4 | 4.64 | 19.1 | 13.9 µM |  |  |  |  |  | 
O=C(NC1C/C(=N/O)c2c(Br)sc(Br)c21)C(F)(F)F (stereo unspecified) | > 100 | > 100 µM | > 100 µM | > 100 µM | > 100 µM | > 100 | > 100 | > 100 | > 100 | > 100 µM |  |  |  |  |  | 
CSc1ncc2c(n1)-c1ccccc1OC2 | > 100 | > 100 µM | > 100 µM | > 100 µM | > 100 µM | > 100 | > 100 | 62.5 | > 100 | > 100 µM |  |  |  |  |  | 
O=C(O)c1nn(-c2ccccc2)nc1-c1nn(-c2ccccc2)nc1C(=O)O | > 100 | > 100 µM | > 100 µM | > 100 µM | > 100 µM | > 100 | > 100 | > 100 | > 100 | > 100 µM |  |  |  |  |  | 
COc1ccc(Nc2nc(N)c(C(=O)c3ccc(Cl)cc3)s2)cc1 | 31.5 | 0.117 µM | > 100 µM | 5.28 µM | 0.536 µM | < 0.01 | > 67.5 | > 100 | > 94.5 | 31.2 µM |  |  |  |  |  | 
CCCN(CCC)C(=O)c1c(N2CCN(C)CC2)c2cccnc2n2c(C)cnc12 | > 100 | > 100 µM | > 100 µM | > 100 µM | > 100 µM | > 100 | > 100 | > 100 | > 100 | 68.1 µM |  |  |  |  |  | 
COc1ccc(N2C(=O)/C(=C/c3ccc(N(CCC#N)CCC#N)cc3)N=C2c2ccccc2)cc1 | > 100 | > 100 µM | > 100 µM | > 100 µM | > 100 µM | > 100 | > 100 | > 100 | > 100 | > 100 µM |  |  |  |  |  | 
COC(=O)c1ccccc1C1CN=NC12Cc1ccc3c(c1C2=O)CCC3 (stereo unspecified) | > 100 | > 100 µM | > 100 µM | > 100 µM | > 100 µM | > 100 | > 100 | > 100 | > 100 | > 100 µM |  |  |  |  |  | 
CC(C)(C)OC(=O)N1N=CCC1c1ccccc1 (stereo unspecified) | > 100 | > 100 µM | > 100 µM | > 100 µM | > 100 µM | > 100 | > 100 | > 100 | > 100 |  |  |  |  |  |  | 
COc1cccc(CCNc2c(C#N)c3n(c4ccccc4[n+]3C)c3ncccc23)c1 | 36.1 | 10.5 µM | 36.5 µM | 3.14 µM | 4.53 µM | 45.6 | 38.5 | 14.7 | > 59.4 | 18.8 µM |  |  |  |  |  | 

Reference: PubChem BioAssay (NCI)
